One molecule from patent publication US20210130826A1, “METHODS OF MODULATING ANTISENSE ACTIVITY” (IONIS PHARMACEUTICALS, INC., priority 2018, published 2021) can be followed below.

One experiment concerns LC3B. Description: Liver protein analysis in mice: LC3B II/I ratio. The experiment is classed as in vivo. To be noted: Table 30; mouse liver 24 h; oligonucleotide 5 mg/kg (or PBS); Treatment AZD8055 5 mg/kg at 0, 12, 22 h. On the procedure:
The following experiments were performed to determine if the effects of autophagy modulators on antisense activity in vitro can be observed in vivo. Groups of 3-4 8-week-old male C57bl/6J mice were administered 5 mg/kg control oligonucleotide 141923, or 5 mg/kg antisense oligonucleotide 399462. Following administration of modified oligonucleotide, mice were administered 1% DMSO or 5 mg/kg AZD8055 in 1% DMSO at three time points over 24 hours: at the time of administration of the modified oligonucleotide, and 12 and 22 hours after administration of the modified oligonucleotide. A group of control mice was administered PBS at time 0 and 1% DMSO at 0, 12, and 22 hours. Mice were sacrificed at 24 hours after administration of the modified oligonucleotide and tissues were collected for analysis.
Autophagy activation was confirmed in livers by determining suppression of mTOR kinase activity (pS6/S6 levels), determining an increased LC3B II/I ratio (a marker for the formation of autophagosomes), and determining p62 degradation (related to the clearance of autophagosomes). Protein analysis was carried out on liver tissue using standard procedures. All proteins were normalized to α-tubulin. Phospho-S6 Ribosomal Protein (Ser240/244) (2215S), and S6 Ribosomal Protein (2217S) antibodies were obtained from Cell Signaling Technology. The antibody against LC3B (ab48394) was purchased from Abcam. […]

The next experiment has as its system Atg7. The experiment is described as follows: Atg7 mRNA in mouse liver by RT-qPCR. The experiment is classed as in vivo. The note with it: Table 31; mouse liver 24 h; oligonucleotide 5 mg/kg; AZD8055 5 mg/kg at 0, 12, 22 h. The method, then:
The following experiments were performed to determine if the effects of autophagy modulators on antisense activity in vitro can be observed in vivo. […] Mice were sacrificed at 24 hours after administration of the modified oligonucleotide and tissues were collected for analysis. […] Atg7 mRNA levels are a marker of the induction of autophagy in treated mouse livers. Results are presented as percent change of RNA, relative to PBS control treated with DMSO, normalized to mouse cyclophilin A measured using mouse primer probe set Cyclophilin-A (forward sequence [NT], designated herein as SEQ ID NO: 38; reverse sequence [NT], designated herein as SEQ ID NO: 39; probe sequence [NT], designated herein as SEQ ID NO: 40). […] Following administration of modified oligonucleotide, groups of mice were either allowed free access to chow (control) or fasted overnight (16 hr fast). Mice were sacrificed at 16 hours after administration of the modified oligonucleotide and tissues were collected for analysis. […] Atg7 mRNA levels are a marker of the induction of autophagy in treated mouse livers. Results are presented in Table 33 relative to mice treated with PBS and allowed normal access to chow. […] Mice were sacrificed at 24 hours after administration of the modified oligonucleotide and tissues were collected for analysis. […]
In general terms: Real-time PCR tracks product formation cycle by cycle.

As to `COc1ccc(-c2ccc3c(N4CCOC[C@@H]4C)nc(N4CCOC[C@@H]4C)nc3n2)cc1CO` [AZD8055], the “LC3B II/I ratio” value with LC3B turned out to be 2.3. Also, the “Atg7 level (% relative to PBS/DMSO-treated mice)” value in the experiment on Atg7 worked out at 112%.
